Key:
[1] = molecular target: T1, transthyretin (TTR) (Homo sapiens, UniProt P02766); assay: Thyroxine (T4) binding competition by gel electrophoresis in plasma, TTR band; conditions: for T4 bound to TTR: human plasma, [125I]T4, in presence of compound
T1 construct: from tissue; host or cells: human plasma
Procedure: Briefly, upon incubation of human plasma in the presence of the test compounds and radio-labeled T4 ([125I]T4), the samples are subjected to native PAGE. After electrophoresis, the gels are dried, subjected to phosphor imaging, and the intensity of the protein bands is then compared. […] The intensity of the bands decreases, as compared to the control samples (absence of compound), if the compound binds to the protein(s) competing with T4.
FIG. 24 presents the results of these experiments, where the bands in the gel correspond to the major T4 binding plasma proteins. The intensity of the bands decreases, as compared to the control samples (absence of compound), if the compound binds to the protein(s) competing with T4. The results were analyzed by calculation of the TTR/total (TTR+ALB+TBG) ratio for each sample collected at different time points. The displacement of T4 from TTR is calculated and plotted as the difference between the average of ratios of TTR/total protein for each control sample and the average of the ratios of TTR/total protein.
The assay for the binding to TTR through competition with T4 is performed by T4 binding gel electrophoresis as previously described in reference.
Five (5) μL of human plasma plus 0.25-0.5 μL of [125I]T4 (specific radioactivity 1250 μCi/m; concentration 320 μCi/mL; Perkin Elmer, Boston, Mass., U.S.A.) plus 5 μL of PBS with glycerol 50% are incubated for 1 hour at room temperature (RT) and the samples are subjected to native PAGE. After electrophoresis, the gels are dried, subjected to phosphor imaging (Typhoon 8600; Molecular Diagnostics, Amersham Biosciences), and analyzed using the ImageQuant program version 5.1. The intensity of the protein bands is compared. […]
The results are analyzed by calculation of the TTR/total (TTR+ALB+TBG) ratio for each sample collected at different time points. The displacement of T4 from TTR is calculated as the difference between the average of ratios of TTR/total protein for each control sample and the average of the ratios of TTR/total protein.

[2] = molecular target: T2, human plasma TTR (Homo sapiens, UniProt P02766); assay: Tetrameric TTR stability by isoelectric focusing (IEF) of plasma TTR, ex vivo; format: biochemical; conditions: human plasma incubated with compound; control (vehicle) 0.717
T2 construct: from tissue; host or cells: human plasma
Procedure: To perform the assay, 30 μL of human plasma are incubated with 5 μL of a 10 mM solution of test compounds and control compounds overnight at 4° C. followed by a 1 hour incubation at room temperature. The preparations are subjected to native PAGE. The gel band containing TTR is then excised and applied to an IEF gel and IEF is carried out in semi-denaturing conditions. Proteins are stained with Coomassie Blue, the gels are scanned and subjected to densitometry. The results are expressed as the ratio of TTR tetramer over the total TTR species present, reflecting TTR stability.
After treatment with the test compounds, TTR was separated by PAGE and the isolated protein was analyzed by IEF.
To perform the assay, 30 μL of human plasma are incubated with 5 μL of a 10 mM solution of test compounds and control compounds overnight at 4° C. followed by a 1 hour incubation at RT. The preparations are subjected to native PAGE and the gel band containing TTR is excised and applied to an IEF gel. IEF is carried out in semi-denaturing conditions (4 M urea), containing 5% (v/v) ampholytes pH 4-6.5 (GE Healthcare), at 1200 V for 6 hours. Proteins are stained with Coomassie Blue, the gels are scanned and subjected to densitometry using the ImageQuant program. The results are expressed as the ratio of TTR tetramer over total TTR.

[3] = test system: FAP patients; conditions: 18-month phase-III clinical trial; cited from earlier work

SMILES | competition with T4 (in words) ([1]; T4 competition and gel electrophoresis) | T4 bound to TTR [1] [%] | tetramer/monomer ratio (IEF densitometry) [2] | FAP patients with improvement of symptoms [3]
COc1cc(/C=C2\SC(=S)N(CC(=O)O)C2=O)cc(Cl)c1O [AT50-A00 (Z), (Z)-3-hydroxycarbonylmethyl-5-(3′-chloro-4′-hydroxy-5′-methoxyphenylmethylidene)-2-thioxothiazolidin-4-one] | competes with T4 | 14.2 | 0.838 | 
O=C(O)c1ccc2nc(-c3cc(Cl)cc(Cl)c3)oc2c1 [Tafamidis, reference compound] |  | 14.4 |  | approximately 60%
